Experiments:
E. coli SK2 = experiment: Checkerboard titration, FMCI; assay type: cell-based, Escherichia coli
Method: (§1) An assay was made using a minimum inhibitory concentration (MIC) and minimum bactericidal concentration (MBC) and minimum fungicidal concentration (MFC) determination. The MIC was determined by the micro broth dilution method in 96-well plates. Serial two-fold dilutions of tetrasodium EDTA (from 2% to 0.015%), ethanol (from 50% to 0.1%) and chlorhexidine HCl (from 100 µg/mL to 0.025 µg/mL) were prepared in MH broth with a final volume of 90 µL per well. A 10 µL containing 1 × 10^5 bacterial cells or 2 × 10^3 fungal cells were added to each well. The inoculated plates were covered with a lid, sealed with Parafilm, and incubated for 24 h at 37° C. with slight rocking on a tilting platform shaker. After incubation, the optical density at 600 nm (OD 600 ) of the cultures in each well was measured using an xMark™ Microplate Absorbance Spectrophotometer (Bio-Rad). […] MBCs and MFCs were determined by transferring 100 µL from each well with no apparent growth onto appropriate agar plates, followed by incubation for 24 h at 37° C.
(§2) A fourth composition and solution included tetrasodium EDTA with ethanol or chlorhexidine HCl. This fourth composition and solution were created using checkerboard titration methods using micro broth dilution in 96-well microtiter plates. The concentrations of antimicrobials used were based on previously determined MIC values. Briefly, 200 µL of two-fold dilutions of tetrasodium EDTA and ethanol or chlorhexidine HCl were prepared in MH or MH II broth with standardized cell suspension. […] Microtiter plates were incubated at 37° C. for 24 h, and the results were analyzed. Each test was performed in duplicate and included a growth control without adding any antimicrobials.

C. albicans ON47 = experiment: Checkerboard titration, FICI; assay type: cell-based, Candida albicans
Method: as §2

S. epidermidis SK9 [1] = experiment: Checkerboard titration, FICI; assay type: cell-based, Staphylococcus epidermidis
Method: as §2

S. epidermidis SK9 [2] = experiment: Checkerboard titration, FMCI; assay type: cell-based, Staphylococcus epidermidis
Method: as §1, §2

MRSA ON184 = experiment: Checkerboard titration, FMCI; assay type: cell-based, Staphylococcus aureus
Method: as §1, §2

[3] = tetrasodium EDTA + chlorhexidine HCl

O=C([O-])CN(CCN(CC(=O)[O-])CC(=O)[O-])CC(=O)[O-].[Na+].[Na+].[Na+].[Na+] [EDTA, tetrasodium EDTA]
Concentration in combination giving FMCI (E. coli SK2; [3]): 0.015 % w/v
Concentration in combination giving FMCI (E. coli SK2; tetrasodium EDTA + ethanol): 0.25 % w/v
Concentration in combination giving FICI (C. albicans ON47; [3]): 0.125 % w/v
Concentration in combination giving FICI (C. albicans ON47; tetrasodium EDTA + ethanol): 0.25 % w/v
Concentration in combination giving FICI (S. epidermidis SK9 [1]; [3]): 0.015 % w/v
Concentration in combination giving FICI (S. epidermidis SK9 [1]; tetrasodium EDTA + ethanol): 0.015 % w/v
Concentration in combination giving FMCI (S. epidermidis SK9 [2]; [3]): 0.008 % w/v
Concentration in combination giving FMCI (S. epidermidis SK9 [2]; tetrasodium EDTA + ethanol): 0.031 % w/v
Concentration in combination giving FMCI (MRSA ON184; [3]): 0.125 % w/v
Concentration in combination giving FMCI (MRSA ON184; tetrasodium EDTA + ethanol): 0.031 % w/v
